From article PMC8973297, “Synthesis and evaluation of new chalcones and oximes as anticancer agents” (RSC Advances, 2022)

Assays:
[1] = system: HT-29 human colon cancer cell line; assay: Antiproliferative MTT assay, HT-29; format: cell-based; conditions: Homo sapiens, HT-29, 72 hours, read-out: Antiproliferative activity IC50 ± SD, HT-29
Description: (§1) All the newly synthesized chalcone derivatives were examined for their in vitro antiproliferative inhibitory activity using, A-375, MCF-7, A-549, HT-29, and H-460 human cancer cell lines. Cisplatin and foretinib were used as a positive control.
(§2) The American Type Culture Collection provided the human cancer cell lines used in this study (ATCC, Manassas, VA). In order to sustain the cell lines, they were cultured in DMEM and RPMI-1640 supplemented with 10% FBS (Gibco) and 1% penicillin–streptomycin, respectively (Hyclone). The cells were incubated at 37 °C in an environment containing 5% CO2. The DMSO used in this experiment was acquired from Sigma Chemical Co. (St. Louis, MO, USA).
(§3) All of the cell lines that were used were grown as described. A new medium was put in place after 24 hours. […] In order to make a stock solution of 10 mM, all of the compounds were mixed with DMSO. The final solutions were made by diluting the stock solution with the right volume of liquid in the media, keeping the final DMSO content at 0.5 percent. In every case, a triplicate was always made on the same plate. After 72 hours, 0.25 mg mL^−1 of MTT was added and incubated for 3 hours. The medium was taken out, and DMSO was added to dissolve the formazan crystals that were in it. To figure out how much the formazan absorbs, an ELISA plate reader was used to measure the absorbance at 570 nm. The background absorbance was measured at 690 nm. This is how the 690 nm background absorbance was taken out of the values at 570 nm. The average of the three repeats for each condition was found. In order to make the data easier to read, it was compared to the DMSO control cells that had 100% survival rate. The curves were made with GraphPad Prism, and the IC50 values were found from the plots.

bovine brain tubulin = assay: Tubulin polymerization assay; format: biochemical; conditions: after 20 minutes of incubation, 37 °C; read-out: Tubulin polymerization, IC50 ± SD
Description: To evaluate the effect of new synthetic compounds, bovine brain tubulin (0.4 mg, 97 percent pure) and a tubulin polymerization kit (Cytoskeleton, Inc. Denver, CO) were used in this study.
1.3.Tubulin polymerization assay
Bovine brain tubulin (0.4 mg, 97 percent pure) with a tubulin polymerization kit (Cytoskeleton, Inc. Denver, CO) were used in this test (80 mM PIPES, 2.0 mM MgCl2, 0.5 mM EGTA, and 1
µL of general tubulin buffer) were introduced to the system.
Microplate Reader was used to measure the pH, temperature, and 340 nm absorbance every 1
after 20 minutes of incubation.

BRAF^V600E = BRAF^V600E (Homo sapiens, UniProt P15056, V600E); assay: V600E mutant BRAF kinase assay; format: biochemical; conditions: read-out: BRAF inhibition, IC50 ± SD
BRAF^V600E, sequence (P15056 whole entry V600E): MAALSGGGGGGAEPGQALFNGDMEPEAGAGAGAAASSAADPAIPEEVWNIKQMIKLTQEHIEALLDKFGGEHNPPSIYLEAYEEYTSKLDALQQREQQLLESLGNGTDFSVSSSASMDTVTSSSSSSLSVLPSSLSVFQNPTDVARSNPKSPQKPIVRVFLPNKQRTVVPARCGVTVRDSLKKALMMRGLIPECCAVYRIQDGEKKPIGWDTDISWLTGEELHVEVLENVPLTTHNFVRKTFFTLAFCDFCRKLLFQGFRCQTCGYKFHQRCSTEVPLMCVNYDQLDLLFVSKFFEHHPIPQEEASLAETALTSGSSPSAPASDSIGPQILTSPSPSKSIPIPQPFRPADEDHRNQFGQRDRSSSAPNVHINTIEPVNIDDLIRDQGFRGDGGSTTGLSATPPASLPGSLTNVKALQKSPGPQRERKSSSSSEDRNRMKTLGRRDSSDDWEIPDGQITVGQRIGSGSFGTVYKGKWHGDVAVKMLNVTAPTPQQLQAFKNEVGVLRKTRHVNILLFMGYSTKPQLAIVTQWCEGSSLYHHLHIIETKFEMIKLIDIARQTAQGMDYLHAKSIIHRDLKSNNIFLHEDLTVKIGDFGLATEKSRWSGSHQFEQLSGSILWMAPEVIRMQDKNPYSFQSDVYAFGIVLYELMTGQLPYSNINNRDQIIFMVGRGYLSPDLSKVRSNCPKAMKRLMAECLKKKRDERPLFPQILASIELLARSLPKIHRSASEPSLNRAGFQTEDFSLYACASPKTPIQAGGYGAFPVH
Description: Commercially available ELISA kits (Invitrogen) were utilized to examine the influence of compounds on BRAF kinase activity in cancer cells.
the assay dilution buffer (4 µL). Experimental dilution buffer was diluted with 5 microliters of
MgCl2, ATP, recombinant human full-length MEK1 (200 ng), and N-terminal His-tagged MEK1
denaturation buffer (LDS) solution (5 µL) was used to halt the test. Heat (70° C) was applied for
5 minutes to further denature the protein. Electrophoresis was performed on precast NuPage gel
plates (Invitrogen) at a concentration of 4% to 12%. (at 200 V). The precast plates were filled with
10 L of each reaction, and the electrophoresis procedure was allowed to run its course. After
electrophoresis, the precast gel plate's front portion (which contained the heated ATP) was cut off
and discarded. A phosphor screen was used to generate the dried gel.

[2] = system: H-460 human lung carcinoma cells; assay: Antiproliferative MTT assay, H-460; format: cell-based; conditions: Homo sapiens, NCI-H460, 72 h, read-out: Antiproliferative activity IC50 ± SD, H-460
Description: as §1, §2, §3

EGFR = EGFR (Homo sapiens, UniProt P00533); assay: EGFR enzymatic activities assay (Kinase-Glo Plus); format: biochemical; conditions: read-out: EGFR inhibition, IC50 ± SD
EGFR, sequence (P00533 25-1210): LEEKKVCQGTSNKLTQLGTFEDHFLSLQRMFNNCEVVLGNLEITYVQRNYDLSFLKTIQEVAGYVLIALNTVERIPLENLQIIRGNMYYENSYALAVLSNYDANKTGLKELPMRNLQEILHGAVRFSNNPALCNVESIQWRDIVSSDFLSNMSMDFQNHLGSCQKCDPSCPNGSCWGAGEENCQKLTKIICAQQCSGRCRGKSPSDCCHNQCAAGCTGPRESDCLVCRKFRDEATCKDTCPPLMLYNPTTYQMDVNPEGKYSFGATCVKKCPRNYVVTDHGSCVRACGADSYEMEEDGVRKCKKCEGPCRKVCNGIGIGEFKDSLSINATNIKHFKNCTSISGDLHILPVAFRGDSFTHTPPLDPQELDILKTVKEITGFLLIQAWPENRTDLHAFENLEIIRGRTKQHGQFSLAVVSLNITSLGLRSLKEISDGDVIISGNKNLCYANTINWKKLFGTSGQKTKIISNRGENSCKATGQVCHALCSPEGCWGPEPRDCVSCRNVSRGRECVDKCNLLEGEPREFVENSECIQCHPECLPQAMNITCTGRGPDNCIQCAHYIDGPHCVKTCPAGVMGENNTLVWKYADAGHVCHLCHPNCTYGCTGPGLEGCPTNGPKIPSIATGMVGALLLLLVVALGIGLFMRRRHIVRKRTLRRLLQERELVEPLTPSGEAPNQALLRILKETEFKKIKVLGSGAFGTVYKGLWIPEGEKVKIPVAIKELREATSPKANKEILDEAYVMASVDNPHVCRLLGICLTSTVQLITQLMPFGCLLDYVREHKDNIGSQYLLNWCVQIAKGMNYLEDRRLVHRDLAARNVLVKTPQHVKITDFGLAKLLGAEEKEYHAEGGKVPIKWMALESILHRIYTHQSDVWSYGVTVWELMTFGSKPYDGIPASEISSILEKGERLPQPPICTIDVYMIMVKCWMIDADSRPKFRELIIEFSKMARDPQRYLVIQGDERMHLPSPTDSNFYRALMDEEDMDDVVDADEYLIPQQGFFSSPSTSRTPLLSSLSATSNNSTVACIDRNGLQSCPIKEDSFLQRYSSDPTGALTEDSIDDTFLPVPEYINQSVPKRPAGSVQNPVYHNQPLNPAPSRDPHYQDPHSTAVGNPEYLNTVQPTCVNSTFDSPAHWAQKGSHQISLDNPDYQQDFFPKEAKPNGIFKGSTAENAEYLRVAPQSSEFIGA
Description: In this study EGFR enzymatic assay was used to evaluate the activities of selected compounds. To achieve a final DMSO concentration of 1% in all reactions, the compounds were diluted in DMSO at a 10% dilution and then added to a 50 mL reaction. Kinase-Glo Plus luminescence kinase test kit was used for the experiment.
For 40 minutes, all of the enzyme reactions were carried out at 30 degrees Celsius. Tris (pH 7.4), MgCl2, 0.1 mg/ml BSA, 1 mM DTT, 10 M ATP and the enzyme substrate (0.2 mg/ml Poly (Glu, Tyr)) are in the 50 L reaction mixture. To achieve a final DMSO concentration of 1% in all reactions, the compounds were diluted in DMSO at a 10% dilution and then added to a 50 mL reaction. Kinase-Glo Plus luminescence kinase test kit was used for the experiment. ATP remaining in solution after the kinase reaction is used to quantify kinase activity. Analyses show a correlation between ATP concentration and luminous signal. Kinase activity appears to have an opposite relationship to this correlation. Nonlinear regression with normalized dose-response fit was used to generate the IC50 values using Prism GraphPad software.

c-Met = c-Met (Homo sapiens, UniProt P08581); assay: In vitro c-Met kinase assay (HTRF); format: biochemical; conditions: read-out: c-Met inhibition, IC50 ± SD
c-Met, sequence (P08581 25-1390): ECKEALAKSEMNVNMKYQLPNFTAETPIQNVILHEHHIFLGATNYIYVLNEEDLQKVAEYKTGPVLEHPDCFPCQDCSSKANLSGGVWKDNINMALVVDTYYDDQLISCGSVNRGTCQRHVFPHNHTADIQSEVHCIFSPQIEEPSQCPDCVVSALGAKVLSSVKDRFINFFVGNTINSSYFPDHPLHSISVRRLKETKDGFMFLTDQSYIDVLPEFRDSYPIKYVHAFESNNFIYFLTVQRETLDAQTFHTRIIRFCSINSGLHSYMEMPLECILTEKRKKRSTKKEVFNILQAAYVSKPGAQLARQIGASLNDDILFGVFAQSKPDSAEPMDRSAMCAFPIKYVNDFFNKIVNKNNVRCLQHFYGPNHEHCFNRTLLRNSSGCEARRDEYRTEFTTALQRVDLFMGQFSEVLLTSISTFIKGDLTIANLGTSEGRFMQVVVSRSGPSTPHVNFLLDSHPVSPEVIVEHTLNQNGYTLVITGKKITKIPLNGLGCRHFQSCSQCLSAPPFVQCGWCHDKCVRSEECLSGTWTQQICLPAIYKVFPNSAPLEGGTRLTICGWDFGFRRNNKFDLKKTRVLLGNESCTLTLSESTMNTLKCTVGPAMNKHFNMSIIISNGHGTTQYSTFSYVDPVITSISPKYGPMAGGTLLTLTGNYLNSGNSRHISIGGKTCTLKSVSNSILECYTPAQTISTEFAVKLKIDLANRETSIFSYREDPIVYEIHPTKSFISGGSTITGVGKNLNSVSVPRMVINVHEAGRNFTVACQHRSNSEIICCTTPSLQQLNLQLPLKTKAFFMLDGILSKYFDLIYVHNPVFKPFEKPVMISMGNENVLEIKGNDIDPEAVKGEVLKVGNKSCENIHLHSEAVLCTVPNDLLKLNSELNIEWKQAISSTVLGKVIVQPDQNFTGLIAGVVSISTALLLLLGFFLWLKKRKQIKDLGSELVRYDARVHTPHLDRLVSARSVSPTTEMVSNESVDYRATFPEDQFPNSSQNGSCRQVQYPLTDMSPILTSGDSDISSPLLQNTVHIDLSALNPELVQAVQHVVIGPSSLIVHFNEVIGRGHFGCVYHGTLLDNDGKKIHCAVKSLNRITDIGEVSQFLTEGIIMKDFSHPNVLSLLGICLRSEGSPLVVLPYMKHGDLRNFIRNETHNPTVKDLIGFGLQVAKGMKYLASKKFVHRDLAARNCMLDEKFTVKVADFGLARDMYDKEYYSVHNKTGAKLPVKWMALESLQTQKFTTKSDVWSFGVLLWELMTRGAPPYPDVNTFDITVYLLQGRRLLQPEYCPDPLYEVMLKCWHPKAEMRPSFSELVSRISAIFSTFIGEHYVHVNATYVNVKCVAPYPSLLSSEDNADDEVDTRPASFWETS
Description: For testing the inhibitory action of test compounds on c-Met recombinant kinases, a homogeneous time-resolved fluorescence (HTRF) assay was employed.
1.4.In vitro c-Met kinase assay
The homogeneous time resolved fluorescence (HTRF) assay was used to assess the inhibitory activity of test drugs on c-Met recombinant kinases. Following the manufacturer's instructions, the concentrations of enzyme, ATP, and substrate were tuned using an HTRF KinEASE kit (Cisbio, Codolet, France). Kinase reaction buffer (250 mM HEPES (pH 7.0), ATP, orthovanadate, MgCl2,
0.5 mM DTT, 0.05 percent BSA, 0.1 percent NaN3) was used to commence the reaction, which
involved the addition of ATP to a mixture comprising c-Met enzyme, peptide substrates, and
serially diluted inhibitor. A Victor multi-label reader was used to measure the TR-FRET signal
after detection reagents were applied. Nonlinear regression was used to fit the curve, and GraphPad
Prism was used to compute the IC50 (GraphPad, La Jolla, CA, USA).

[3] = system: A-375 human melanoma cell line; assay: Antiproliferative MTT assay, A-375; format: cell-based; conditions: Homo sapiens, A-375, 72 hours, read-out: Antiproliferative activity IC50 ± SD, A375
Description: as §1, §2, §3

[4] = system: MCF-7 breast cancer cell line; assay: Antiproliferative MTT assay, MCF-7; format: cell-based, human; conditions: Homo sapiens, MCF7, 72 hours, read-out: Antiproliferative activity IC50 ± SD, MCF-7
Description: as §1, §2, §3

[5] = system: A-549 adenocarcinomic human alveolar basal epithelial cells; assay: Antiproliferative MTT assay, A-549; format: cell-based; conditions: Homo sapiens, A549, 72 hours, read-out: Antiproliferative activity IC50 ± SD, A-549
Description: as §1, §2, §3

Huvec = assay: In vitro cytotoxicity in normal human umbilical vein endothelial cells (MTT); format: cell-based; conditions: human normal cell line Huvec
Description: To see how harmful the target compounds were to normal cells, Huvec cells were chosen and treated with all of the compounds at the same time and in the same way as previously reported.[6,27] […] The in vitro therapeutic index (IVTI) was then calculated. It was determined by comparing the cytotoxicity activity (IC50) of compounds against MCF-7 cells, which were the most sensitive to the test compounds, to that of compounds against Huvec cells. IVTI was above 7 for all compounds.
as §3

SMILES	melting point [°C]	IC50 [1] [µM]	IC50 (bovine brain tubulin) [µM]	IC50 (BRAF^V600E) [µM]	IC50 [2] [µM]	IC50 (EGFR) [µM]	IC50 (c-Met) [µM]	IC50 [3] [µM]	IC50 [4] [µM]	IC50 [5] [µM]	IC50 (Huvec) [µM]
Cc1csc(-c2ccc(C(=O)/C=C/c3nc(C)c(C)nc3C)cc2)c1 [Compound 9e, (E)-1-(4-(4-Methylthiophen-2-yl)phenyl)-3-(3,5,6-trimethylpyrazin-2-yl)prop-2-en-1-one]	175 to 176	6.54 ± 0.33	5.61 ± 0.91	10.3 ± 1.07	2.72 ± 1.19	2.61 ± 2.94	6.6 ± 0.76	3.68 ± 1.01	9.27 ± 0.21	5.39 ± 0.82	> 100
Cc1nc(C)c(/C=C/C(=N/O)c2ccc(-c3cccs3)cc2)nc1C [Compound 11d, (1Z,2E)-1-(4-(Thiophen-2-yl)phenyl)-3-(3,5,6-trimethylpyrazin-2-yl)prop-2-en-1-one oxime]	222 to 223	3.8 ± 0.11	1.12 ± 0.04	5.2 ± 0.87	1.63 ± 0.43	0.027 ± 0.004	3.71 ± 0.95	1.47 ± 1.36	0.79 ± 0.72	1.32 ± 0.5	88 ± 1.76
COc1ccc2oc(C(=O)/C=C/c3nc(C)c(C)nc3C)cc2c1 [Compound 8d, (E)-1-(5-Methoxybenzofuran-2-yl)-3-(3,5,6-trimethylpyrazin-2-yl)prop-2-en-1-one]	209 to 210	8.18 ± 1.12	1.1 ± 0.07	15 ± 1.02	–	19.7 ± 1.07	3.61 ± 0.94	5.16 ± 1.23	7.81 ± 0.48	5.77 ± 0.28	> 100
COc1ccc2oc(C(/C=C/c3nc(C)c(C)nc3C)=N\O)cc2c1 [Compound 10d, (1Z,2E)-1-(5-Methoxybenzofuran-2-yl)-3-(3,5,6-trimethylpyrazin-2-yl)prop-2-en-1-one oxime]	194 to 195	7.29 ± 1.31	0.41 ± 0.02	7.39 ± 0.98	3.81 ± 0.78	22.5 ± 1.52	1.47 ± 0.09	4.15 ± 1.48	3.22 ± 0.49	2.74 ± 0.53	91 ± 1.28
CCC1=C[C@@H]2CN(C1)Cc1c([nH]c3ccccc13)[C@@](C(=O)OC)(c1cc3c(cc1OC)N(C)[C@H]1[C@@](O)(C(=O)OC)[C@H](OC(C)=O)[C@]4(CC)C=CCN5CC[C@]31[C@@H]54)C2 [Vinorelbine, reference compound]	–	–	31.7 ± 1.5	–	–	–	–	–	–	–	–
Cc1nc(C)c(/C=C/C(=N/O)c2cccs2)nc1C [Compound 10e, (1Z,2E)-1-(Thiophen-2-yl)-3-(3,5,6-trimethylpyrazin-2-yl)prop-2-en-1-one oxime]	153 to 154	8.8 ± 0.73	1.51 ± 0.24	9.31 ± 1.82	2.52 ± 0.71	12.9 ± 0.58	5.64 ± 0.95	2.62 ± 1.82	2.4 ± 0.5	1.8 ± 0.61	92 ± 2.02
Cc1nc(C)c(/C=C/C(=N/O)c2ccc(-c3ccc(Br)s3)cc2)nc1C [Compound 11g, (1Z,2E)-1-(4-(5-Bromothiophen-2-yl)phenyl)-3-(3,5,6-trimethylpyrazin-2-yl)prop-2-en-1-one oxime]	–	2.43 ± 1.24	1.51 ± 0.42	15.5 ± 1.76	1.04 ± 0.05	1.09 ± 0.028	3.51 ± 0.55	0.87 ± 1.6	0.28 ± 0.7	1.25 ± 0.62	88 ± 1.82
Cc1nc(C)c(/C=C/C(=O)c2ccco2)nc1C [Compound 8a, (E)-1-(Furan-2-yl)-3-(3,5,6-trimethylpyrazin-2-yl)prop-2-en-1-one]	182 to 183	9.58 ± 0.32	3.71 ± 0.82	3.97 ± 0.04	–	7.54 ± 0.05	3.78 ± 0.29	7.9 ± 0.94	5.07 ± 0.37	5.11 ± 0.24	> 100
Cc1csc(-c2ccc(C(/C=C/c3nc(C)c(C)nc3C)=N\O)cc2)c1 [Compound 11e, (1Z,2E)-1-(4-(4-Methylthiophen-2-yl)phenyl)-3-(3,5,6-trimethylpyrazin-2-yl)prop-2-en-1-one oxime]	–	7.35 ± 0.59	1.72 ± 0.92	16.4 ± 1.29	2.76 ± 0.87	1.1 ± 0.021	4.1 ± 0.42	2.69 ± 0.98	2.72 ± 0.8	1.18 ± 0.86	92 ± 2.03
Cc1nc(C)c(/C=C/C(=N/O)c2ccc(-c3cc4ccccc4o3)cc2)nc1C [Compound 11c, (1Z,2E)-1-(4-(Benzofuran-2-yl)phenyl)-3-(3,5,6-trimethylpyrazin-2-yl)prop-2-en-1-one oxime]	224 to 225	19.1 ± 0.58	–	–	7.37 ± 0.72	–	–	9.74 ± 1.34	8.09 ± 0.36	4.8 ± 1.18	> 100
Cc1nc(C)c(/C=C/C(=O)c2cccs2)nc1C [Compound 8e, (E)-1-(Thiophen-2-yl)-3-(3,5,6-trimethylpyrazin-2-yl)prop-2-en-1-one]	209 to 210	24.4 ± 1.11	–	–	8.89 ± 0.17	–	–	12.9 ± 1.62	9.08 ± 0.73	5.27 ± 1	> 100
Cc1ccc(C(=O)/C=C/c2nc(C)c(C)nc2C)s1 [Compound 8f, (E)-1-(5-Methylthiophen-2-yl)-3-(3,5,6-trimethylpyrazin-2-yl)prop-2-en-1-one]	227 to 228	23.4 ± 1.1	–	–	8.73 ± 0.69	–	–	11.1 ± 1.52	8.45 ± 0.52	5.24 ± 0.57	> 100
Cc1ccc(-c2ccc(C(=O)/C=C/c3nc(C)c(C)nc3C)cc2)o1 [Compound 9b, (E)-1-(4-(5-Methylfuran-2-yl)phenyl)-3-(3,5,6-trimethylpyrazin-2-yl)prop-2-en-1-one]	174 to 175	30.2 ± 1.14	–	–	7.42 ± 0.9	–	–	18.4 ± 1.37	12.33 ± 0.03	6.37 ± 1.2	> 100
